# In US4619925A, “3-Propenyl cephalosporin derivatives” (priority 1985, dated 1986):
# Legend:
# Format in all cases: cell-based
# S. aureus A15092 = experiment: MIC, agar dilution technique (Mueller-Hinton Agar); conditions: Staphylococcus aureus, Gp-Ib, penicillin resistant, read-out: Minimum Inhibitory Concentration
# Source text: (§1) Each of these groups of organisms is constituted of five individual strains of microorganism. The Gp-Ia organisms are Gram-positive staphylococci which are sensitive to penicillin. The Gp-Ib organisms are Gram-positive staphylococci which are resistant to penicillin and produce penicillinase. The Gn-Ia organisms are Gram-negative bacteria which are sensitive to ampicillin and cephalothin. The Gn-Ib organisms are Gram-negative bacteria which are resistant to ampicillin and cephalothin.
# S. aureus A9601 = experiment: MIC, agar dilution technique (Mueller-Hinton Agar); conditions: Staphylococcus aureus, A9601, read-out: Minimum Inhibitory Concentration
# Source text: as §1
# E. coli A15148 = experiment: MIC, agar dilution technique (Mueller-Hinton Agar); conditions: Escherichia coli; E. coli A15148; Gn-Ib, ampicillin and cephalothin resistant; read-out: Minimum Inhibitory Concentration
# Source text: as §1
# P. mirabilis A9900 = experiment: MIC, agar dilution technique (Mueller-Hinton Agar); conditions: Proteus mirabilis, A9900, read-out: Minimum Inhibitory Concentration
# Source text: as §1
# S. aureus No. 193 = experiment: MIC, agar dilution technique (Mueller-Hinton Agar); conditions: Staphylococcus aureus, Gp-Ib, penicillin resistant, read-out: Minimum Inhibitory Concentration
# Source text: as §1
# S. aureus Smith = experiment: MIC, agar dilution technique (Mueller-Hinton Agar); conditions: Staphylococcus aureus, Gp-Ia, penicillin sensitive, read-out: Minimum Inhibitory Concentration
# Source text: as §1
# S. aureus A9497 = experiment: MIC, agar dilution technique (Mueller-Hinton Agar); conditions: Staphylococcus aureus, Gp-Ia, penicillin sensitive, read-out: Minimum Inhibitory Concentration
# Source text: as §1
# S. aureus BX-1633-2 = experiment: MIC, agar dilution technique (Mueller-Hinton Agar); conditions: Staphylococcus aureus, BX16332, read-out: Minimum Inhibitory Concentration
# Source text: as §1
# S. aureus A9534 = experiment: MIC, agar dilution technique (Mueller-Hinton Agar); conditions: Staphylococcus aureus, Gp-Ia, penicillin sensitive, read-out: Minimum Inhibitory Concentration
# Source text: as §1
# K. pneumoniae A20345 = experiment: MIC, agar dilution technique (Mueller-Hinton Agar); conditions: Klebsiella pneumoniae, Gn-Ib, ampicillin and cephalothin resistant, read-out: Minimum Inhibitory Concentration
# Source text: as §1
# K. pneumoniae A20346 = experiment: MIC, agar dilution technique (Mueller-Hinton Agar); conditions: Klebsiella pneumoniae, A20346, read-out: Minimum Inhibitory Concentration
# Source text: as §1
# E. coli A20341-1 = experiment: MIC, agar dilution technique (Mueller-Hinton Agar); conditions: Escherichia coli, A203411, read-out: Minimum Inhibitory Concentration
# Source text: as §1
# S. aureus Terajima = experiment: MIC, agar dilution technique (Mueller-Hinton Agar); conditions: Staphylococcus aureus, Gp-Ia, penicillin sensitive, read-out: Minimum Inhibitory Concentration
# Source text: as §1
# K. pneumoniae D11 = experiment: MIC, agar dilution technique (Mueller-Hinton Agar); conditions: Klebsiella pneumoniae, D11, read-out: Minimum Inhibitory Concentration
# Source text: as §1
# P. mirabilis A9554 = experiment: MIC, agar dilution technique (Mueller-Hinton Agar); conditions: Proteus mirabilis, A9554, read-out: Minimum Inhibitory Concentration
# Source text: as §1
# E coli RGN-823 = experiment: MIC, agar dilution technique (Mueller-Hinton Agar); conditions: Escherichia coli, RGN823, Gn-Ib, ampicillin and cephalothin resistant, read-out: Minimum Inhibitory Concentration
# Source text: as §1
# E. coli A9660 = experiment: MIC, agar dilution technique (Mueller-Hinton Agar); conditions: Escherichia coli, A9660, read-out: Minimum Inhibitory Concentration
# Source text: as §1
# S. aureus A9602 = experiment: MIC, agar dilution technique (Mueller-Hinton Agar); conditions: Staphylococcus aureus; S. aureus A9602; Gp-Ib, penicillin resistant; read-out: Minimum Inhibitory Concentration
# Source text: as §1
# S. aureus Russell = experiment: MIC, agar dilution technique (Mueller-Hinton Agar); conditions: Staphylococcus aureus; S. aureus Russell; Gp-Ib, penicillin resistant; read-out: Minimum Inhibitory Concentration
# Source text: as §1
# E. coli Juhl = experiment: MIC, agar dilution technique (Mueller-Hinton Agar); conditions: Escherichia coli, read-out: Minimum Inhibitory Concentration
# Source text: as §1
# S. pyogenes s-23 = experiment: In vitro activity against fastidious bacteria; conditions: Streptococcus pyogenes, S23
# Source text: (§2) Table 5 contains comparative data for in vitro antibacterial activity against fastidious bacteria.
# H. influenzae A22483 = experiment: In vitro activity against fastidious bacteria; conditions: Haemophilus influenzae; H. influenzae A22483; ampicillin-sensitive (ABPC-S); read-out: MIC
# Source text: as §2
# H. influenzae A22491 = experiment: In vitro activity against fastidious bacteria; conditions: Haemophilus influenzae, ampicillin-resistant (ABPC-R)
# Source text: as §2
# H. influenzae A22157 = experiment: In vitro activity against fastidious bacteria; conditions: Haemophilus influenzae, ampicillin-resistant (ABPC-R)
# Source text: as §2
# S. pneumoniae Type I = experiment: In vitro activity against fastidious bacteria; conditions: Streptococcus pneumoniae
# Source text: as §2
# N. meningitidis A21487 = experiment: In vitro activity against fastidious bacteria; conditions: Neisseria meningitidis, A21487
# Source text: as §2
# H. influenzae A9729 = experiment: In vitro activity against fastidious bacteria; conditions: Haemophilus influenzae; H. influenzae A9729; ampicillin-sensitive (ABPC-S); read-out: MIC
# Source text: as §2
# S. pneumoniae A20759 = experiment: In vitro activity against fastidious bacteria; conditions: Streptococcus pneumoniae, A20759
# Source text: as §2
# H. influenzae A22481 = experiment: In vitro activity against fastidious bacteria; conditions: Haemophilus influenzae, ampicillin-resistant (ABPC-R)
# Source text: as §2
# N. meningitidis A21495 = experiment: In vitro activity against fastidious bacteria; conditions: Neisseria meningitidis, A21495
# Source text: as §2
# S. pyogenes A20201 = experiment: In vitro activity against fastidious bacteria; conditions: Streptococcus pyogenes, A20201
# Source text: as §2
# N. meningitidis A20048 = experiment: In vitro activity against fastidious bacteria; conditions: Neisseria meningitidis, A20048
# Source text: as §2
# S. pyogenes A15040 = experiment: In vitro activity against fastidious bacteria; conditions: Streptococcus pyogenes, A15040
# Source text: as §2
# H. influenzae A9833 = experiment: In vitro activity against fastidious bacteria; conditions: Haemophilus influenzae; H. influenzae A9833; ampicillin-sensitive (ABPC-S); read-out: MIC
# Source text: as §2
# H. influenzae A22482 = experiment: In vitro activity against fastidious bacteria; conditions: Haemophilus influenzae; H. influenzae A22482; ampicillin-sensitive (ABPC-S); read-out: MIC
# Source text: as §2
# S. pneumoniae Type III = experiment: In vitro activity against fastidious bacteria; conditions: Streptococcus pneumoniae
# Source text: as §2
# N. meningitidis A20049 = experiment: In vitro activity against fastidious bacteria; conditions: Neisseria meningitidis, A20049
# Source text: as §2
# S. pyogenes A9604 = experiment: In vitro activity against fastidious bacteria; conditions: Streptococcus pyogenes, A9604
# Source text: as §2
# N. meningitidis A21497 = experiment: In vitro activity against fastidious bacteria; conditions: Neisseria meningitidis, A21497
# Source text: as §2
# S. pneumoniae A15069 = experiment: In vitro activity against fastidious bacteria; conditions: Streptococcus pneumoniae, A15069
# Source text: as §2
# S. pyogenes A20065 = experiment: In vitro activity against fastidious bacteria; conditions: Streptococcus pyogenes, A20065
# Source text: as §2
# S. pyogenes Dick = experiment: In vitro activity against fastidious bacteria; conditions: Streptococcus pyogenes
# Source text: as §2
smiles,measurement,setting,value
CC1=C(C(=O)O)N2C(=O)[C@@H](NC(=O)[C@H](N)c3ccccc3)[C@H]2SC1 [cephalexin],MIC,S. aureus A15092,6.3 µg/mL
same,MIC,S. aureus A9601,1.6 µg/mL
same,MIC,E. coli A15148,100 µg/mL
same,MIC,P. mirabilis A9900,12.5 µg/mL
same,MIC,S. aureus No. 193,6.3 µg/mL
same,MIC,S. aureus Smith,1.6 µg/mL
same,MIC,S. aureus A9497,1.6 µg/mL
same,MIC,S. aureus BX-1633-2,6.3 µg/mL
same,MIC,S. aureus A9534,1.6 µg/mL
same,MIC,K. pneumoniae A20345,6.3 µg/mL
same,MIC,K. pneumoniae A20346,6.3 µg/mL
same,MIC,E. coli A20341-1,6.3 µg/mL
same,MIC,S. aureus Terajima,1.6 µg/mL
same,MIC,K. pneumoniae D11,6.3 µg/mL
same,MIC,P. mirabilis A9554,12.5 µg/mL
same,MIC,E coli RGN-823,12.5 µg/mL
same,MIC,E. coli A9660,6.3 µg/mL
same,MIC,S. aureus A9602,3.1 µg/mL
same,MIC,S. aureus Russell,3.1 µg/mL
same,MIC,E. coli Juhl,6.3 µg/mL
same,MIC,S. pyogenes s-23,0.8 µg/mL
same,MIC,H. influenzae A22483,3.1 µg/mL
same,MIC,H. influenzae A22491,3.1 µg/mL
same,MIC,H. influenzae A22157,3.1 µg/mL
same,MIC,S. pneumoniae Type I,3.1 µg/mL
same,MIC,N. meningitidis A21487,3.1 µg/mL
same,MIC,H. influenzae A9729,3.1 µg/mL
same,MIC,S. pneumoniae A20759,3.1 µg/mL
same,MIC,H. influenzae A22481,3.1 µg/mL
same,MIC,N. meningitidis A21495,3.1 µg/mL
same,MIC,S. pyogenes A20201,0.8 µg/mL
same,MIC,N. meningitidis A20048,3.1 µg/mL
same,MIC,S. pyogenes A15040,0.8 µg/mL
same,MIC,H. influenzae A9833,3.1 µg/mL
same,MIC,H. influenzae A22482,3.1 µg/mL
same,MIC,S. pneumoniae Type III,3.1 µg/mL
same,MIC,N. meningitidis A20049,3.1 µg/mL
same,MIC,S. pyogenes A9604,0.8 µg/mL
same,MIC,N. meningitidis A21497,3.1 µg/mL
same,MIC,S. pneumoniae A15069,3.1 µg/mL
same,MIC,S. pyogenes A20065,0.8 µg/mL
same,MIC,S. pyogenes Dick,0.8 µg/mL
